Reference: patent US7572793B2, “3-Substituted-4-pyrimidone derivatives” (Mitsubishi Tanabe Pharma Corporation, priority 2001, dated 2009)
pIC50: −log10 of the molar value.

Molecular target: T1, bovine cerebral TPK1 (Bos taurus, UniProt A0A3Q1MT31)
T1 construct: from tissue; host or cells: bovine brain (cerebrum)
Assay: Inhibitory activity against P-GS1 phosphorylation by bovine cerebral TPK1
Assay type: biochemical
Conditions: 41.7 μM [γ-32P]ATP, 25° C., 2 hours, pH 6.5
Experimental: Inhibitory Activity of the Medicament of the Present Invention Against P-GS1 Phosphorylation by Bovine Cerebral TPK1
A mixture containing 100 mM MES-sodium hydroxide (pH 6.5), 1 mM magnesium acetate, 0.5 mM EGTA, 5 mM β-mercaptoethanol, 0.02% Tween 20, 10% glycerol, 12 μg/ml P-GS1, 41.7 μM [y-^32P] ATP (68 kBq/ml), bovine cerebral TPK1 and a compound shown in Table (a final mixture contained 1.7% DMSO deriving from a solution of a test compound prepared in the presence of 10% DMSO) was used as a reaction system. The phosphorylation was started by adding ATP, and the reaction was conducted at 25° C. for 2 hours, and then stopped by adding 21% perchloric acid on ice cooling. The reaction mixture was centrifuged at 12,000 rpm for 5 minutes and adsorbed on P81 paper (Whatmann), and then the paper was washed four times with 75 mM phosphoric acid, three times with water and once with acetone. The paper was dried, and the residual radioactivity was measured using a liquid scintillation counter. […] PHF formation, and that the medicaments of the present invention are effective for preventive and/or therapeutic treatment of Alzheimer disease and the above-mentioned diseases.

T1 sequence (A0A3Q1MT31 1-419): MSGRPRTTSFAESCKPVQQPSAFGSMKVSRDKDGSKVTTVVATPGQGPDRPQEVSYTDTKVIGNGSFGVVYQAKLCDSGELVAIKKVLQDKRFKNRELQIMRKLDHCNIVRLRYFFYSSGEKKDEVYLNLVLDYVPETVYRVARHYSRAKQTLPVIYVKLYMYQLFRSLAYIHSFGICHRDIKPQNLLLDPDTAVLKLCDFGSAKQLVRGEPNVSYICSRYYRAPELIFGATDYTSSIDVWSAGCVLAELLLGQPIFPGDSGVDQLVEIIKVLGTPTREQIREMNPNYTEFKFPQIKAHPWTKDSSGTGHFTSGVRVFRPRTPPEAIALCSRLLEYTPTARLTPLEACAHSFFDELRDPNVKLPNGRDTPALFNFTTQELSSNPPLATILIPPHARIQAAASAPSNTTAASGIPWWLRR

Row | Compound | pIC50
1 | Cn1c(N2CCOC(c3cc4cc(F)ccc4n3C)C2)nc(-c2ccncn2)cc1=O (stereo not shown) [Compound B242] | 8.16
2 | Cn1c(N2CCO[C@@H](c3cccc4c3OCC4)C2)nc(-c2ccncn2)cc1=O [Compound B243] | 8.38
3 | COc1cc(F)cc(OC)c1[C@@H]1CN(c2nc(-c3ccncn3)cc(=O)n2C)CCO1 [Compound B245] | 8.89
4 | COc1cc(C)c(C)cc1C1CN(c2nc(-c3ccncn3)cc(=O)n2C)CCO1 (stereo not shown) [Compound B246] | 8.96
5 | Cn1c(N2CCOC(c3ccc(F)cc3OCC3CC3)C2)nc(-c2ccncn2)cc1=O (stereo not shown) [Compound B247] | 7.82
6 | Cn1c(N2CCOC(c3noc4ccccc34)C2)nc(-c2ccncn2)cc1=O (stereo not shown) [Compound B251] | 8.62
7 | COc1ccc(-c2ccc(F)cc2)cc1C1CN(c2nc(-c3ccncn3)cc(=O)n2C)CCO1 (stereo not shown) [Compound B255] | 8.34
8 | Cn1c(N2CCOC(c3ccc(F)cc3O)C2)nc(-c2ccncn2)cc1=O (stereo not shown) [Compound B257] | 8.13
9 | COc1cc(-c2ccccc2)ccc1C1CN(c2nc(-c3ccncn3)cc(=O)n2C)CCO1 (stereo not shown) [Compound B258] | 8.85
10 | COc1ccc(N2CCCC2)cc1C1CN(c2nc(-c3ccncn3)cc(=O)n2C)CCO1 (stereo not shown) [Compound B259] | 8.92
11 | COc1ccc(-c2ccccc2F)cc1C1CN(c2nc(-c3ccncn3)cc(=O)n2C)CCO1 (stereo not shown) [Compound B261] | 8.85
12 | COc1cccc(-c2ccc(OC)c(C3CN(c4nc(-c5ccncn5)cc(=O)n4C)CCO3)c2)c1 (stereo not shown) [Compound B262] | 8.89
13 | COc1ccc(-c2ccc(Cl)cc2Cl)cc1C1CN(c2nc(-c3ccncn3)cc(=O)n2C)CCO1 (stereo not shown) [Compound B263] | 7.89
14 | COc1ccc(-c2cccc(F)c2)cc1C1CN(c2nc(-c3ccncn3)cc(=O)n2C)CCO1 (stereo not shown) [Compound B266] | 8.80
15 | COc1ccccc1-c1ccc(OC)c(C2CN(c3nc(-c4ccncn4)cc(=O)n3C)CCO2)c1 (stereo not shown) [Compound B267] | 8.92
16 | COc1ccc(-c2ccc(OC)c(C3CN(c4nc(-c5ccncn5)cc(=O)n4C)CCO3)c2)cc1 (stereo not shown) [Compound B268] | 8.77
17 | COc1ccc(Nc2ccccc2)cc1C1CN(c2nc(-c3ccncn3)cc(=O)n2C)CCO1 (stereo not shown) [Compound B269] | 8.96
18 | Cn1c(N2CCOC(c3ccc(F)cc3OCc3ccccc3)C2)nc(-c2ccncn2)cc1=O (stereo not shown) [Compound B270] | 7.57
19 | Cn1c(N2CCOC(c3cc4ccccc4o3)C2)nc(-c2ccncn2)cc1=O (stereo not shown) [Compound B271] | 8.38
20 | Cn1c(N2CCO[C@@H](c3cc4ccccc4o3)C2)nc(-c2ccncn2)cc1=O [Compound B272] | 8.15
21 | COc1cccc2cc(C3CN(c4nc(-c5ccncn5)cc(=O)n4C)CCO3)oc12 (stereo not shown) [Compound B273] | 8.37

Now those with a higher pIC50, led by results:

Row | pIC50 | Compound
22 | 9.77 | COc1cc(F)cc(OC)c1[C@H]1CN(c2nc(-c3ccncn3)cc(=O)n2C)CCO1 [Compound B244]
23 | 9.11 | COc1ccc(C#N)cc1C1CN(c2nc(-c3ccncn3)cc(=O)n2C)CCO1 (stereo not shown) [Compound B248]
24 | 9.08 | COc1cc(Cl)ccc1C1CN(c2nc(-c3ccncn3)cc(=O)n2C)CCO1 (stereo not shown) [Compound B249]
25 | 9.25 | COc1cc(F)cc(F)c1C1CN(c2nc(-c3ccncn3)cc(=O)n2C)CCO1 (stereo not shown) [Compound B250]
26 | 9.00 | Cn1c(N2CCO[C@@H](c3noc4ccccc34)C2)nc(-c2ccncn2)cc1=O [Compound B252]
27 | 9.15 | COc1cc(C#N)ccc1C1CN(c2nc(-c3ccncn3)cc(=O)n2C)CCO1 (stereo not shown) [Compound B253]
28 | 9.62 | COc1cc(F)cc(F)c1[C@H]1CN(c2nc(-c3ccncn3)cc(=O)n2C)CCO1 [Compound B254]
29 | 9.19 | COc1ccc(-c2cccnc2)cc1C1CN(c2nc(-c3ccncn3)cc(=O)n2C)CCO1 (stereo not shown) [Compound B256]
30 | 9.11 | COc1cc(N2CCCC2)ccc1C1CN(c2nc(-c3ccncn3)cc(=O)n2C)CCO1 (stereo not shown) [Compound B260]
31 | 9.22 | COc1ccc(CN2CCCC2)cc1C1CN(c2nc(-c3ccncn3)cc(=O)n2C)CCO1 (stereo not shown) [Compound B264]
